Data from PMC8353826, “Celastrol exerts a neuroprotective effect by directly binding to HMGB1 protein in cerebral ischemia–reperfusion” (Journal of Neuroinflammation, 2021).

How the values were obtained:
HMGB1 B box [1] = target: T1, HMGB1 B box (Homo sapiens, UniProt P09429); assay: in-gel fluorescence labelling by probe, click TAMRA azide; assay type: binding; conditions: labelled compound; labelling in presence of IAA; PBS
T1 construct: B box domain, residues 90-175, N-terminal 6-His tag, modified pET-24d, E. coli BL21
T1 sequence (P09429 90-175): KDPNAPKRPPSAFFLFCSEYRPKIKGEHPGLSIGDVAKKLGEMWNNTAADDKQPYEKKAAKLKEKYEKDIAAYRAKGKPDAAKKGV

HMGB1 A box [2] = target: T2, HMGB1 A box (Homo sapiens, UniProt P09429); assay: as above; assay type: binding; conditions: labelled compound; labelling in presence of IAA; PBS
T2 construct: A box domain, residues 1-89, N-terminal 6-His tag, modified pET-24d, E. coli BL21
T2 sequence (P09429 1-89): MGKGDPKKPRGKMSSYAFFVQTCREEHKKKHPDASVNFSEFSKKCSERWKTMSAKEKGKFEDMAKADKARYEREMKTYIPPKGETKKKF

[3] = target: T3, HMGB1 (primary rat cortical neurons) (Rattus norvegicus, UniProt P63159); assay: probe pull-down, TMT LC-MS/MS and Western blot; assay type: cell-based; conditions: labelled compound; 4 μM cel-p, 4 h, living neurons, with or without OGD
T3 construct: endogenous full-length protein in living primary cortical neurons or their lysate
T3 sequence (P63159 2-215): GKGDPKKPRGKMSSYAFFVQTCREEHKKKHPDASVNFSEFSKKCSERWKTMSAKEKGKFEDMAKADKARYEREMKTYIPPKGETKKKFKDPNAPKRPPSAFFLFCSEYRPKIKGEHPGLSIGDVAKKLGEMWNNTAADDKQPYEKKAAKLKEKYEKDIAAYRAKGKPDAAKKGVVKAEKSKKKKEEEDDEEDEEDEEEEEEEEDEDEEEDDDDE

HMGB1 A box [4] = target: T2, HMGB1 A box; assay: gel-based competition with IAA-yne labelling, click TAMRA fluorescence; assay type: binding; conditions: covalent; blocks IAA-yne labelling of Cys; PBS
[5] = target: T4, recombinant human HMGB1 protein (full-length) (Homo sapiens, UniProt P09429); assay: as above; assay type: binding; conditions: covalent; Cys 106 of disulfide form or Cys 23, 45, 106 of fully reduced form, also other sites; PBS
T4 construct: full-length recombinant protein, commercial (Abcam); disulfide form or DTT-reduced
T4 sequence (P09429 1-215): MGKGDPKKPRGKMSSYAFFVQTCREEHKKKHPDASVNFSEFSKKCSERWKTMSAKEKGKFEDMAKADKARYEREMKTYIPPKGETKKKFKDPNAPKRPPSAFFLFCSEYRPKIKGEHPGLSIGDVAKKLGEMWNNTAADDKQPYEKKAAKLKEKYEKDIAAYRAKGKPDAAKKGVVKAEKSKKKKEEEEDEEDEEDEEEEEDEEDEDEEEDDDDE

[6] = target: T3, HMGB1 (primary rat cortical neurons); assay: CETSA in neuron lysate, Western blot; competition with cel-p pull-down; assay type: biochemical; conditions: 20 μM cel, 1 h, 37-82 °C (CETSA); 8 × cel in pull-down
HMGB1 B box [7] = target: T1, HMGB1 B box; assay: gel-based competition with IAA-yne labelling, click TAMRA fluorescence; assay type: binding; conditions: covalent; blocks IAA-yne labelling of Cys; PBS

SMILES | in-gel fluorescence labelling by probe, click TAMRA azide (HMGB1 B box [1]) | in-gel fluorescence labelling by probe, click TAMRA azide (HMGB1 A box [2]) | probe pull-down, TMT LC-MS/MS and Western blot [3] | gel-based competition with IAA-yne labelling, click TAMRA fluorescence (HMGB1 A box [4]) | gel-based competition with IAA-yne labelling, click TAMRA fluorescence [5] | CETSA in neuron lysate, Western blot; competition with cel-p pull-down [6] | gel-based competition with IAA-yne labelling, click TAMRA fluorescence (HMGB1 B box [7])
C#CCNC(=O)[C@]1(C)CC[C@]2(C)CC[C@]3(C)C4=CC=C5C(=CC(=O)C(O)=C5C)[C@]4(C)CC[C@@]3(C)[C@@H]2C1 [cel-p] | The binding of cel-p to the A and B boxes could not be blocked by IAA | The binding of cel-p to the A and B boxes could not be blocked by IAA | could completely compete the binding of cel-p to HMGB1 | – | – | – | –
CC1=C(O)C(=O)C=C2C1=CC=C1[C@@]2(C)CC[C@@]2(C)[C@@H]3C[C@](C)(C(=O)O)CC[C@]3(C)CC[C@]12C [cel, celastrol] | – | – | – | Cel also almost completely blocked the binding of IAA-yne to the Cys group | Cel almost completely competed for the binding of IAA-yne to HMGB1 or DTT reduced HMGB1 | The CETSA results also proved the direct binding of cel and HMGB1 | Cel also almost completely blocked the binding of IAA-yne to the Cys group
